Results taken from patent US20260217743A1, “ETHER OF PHOSPHATIDYLCHOLINE AND PHOSPHATIDYLETHANOLAMINE, THEIR LYSO-FORMS AND MIXTURE THEREOF FOR USE IN THE TREATMENT OF A DISEASE OR DISORDER CAUSED BY A DEFICIENCY IN PLASMALOGENS” (Baker Heart and Diabetes Institute, priority 2023, published 2026).

What was measured:
RAW 264.7 cells = assay: LPC(O)/LPE(O) supplementation with different SN1 compositions in RAW 264.7 cells, PE(P) level and composition; type: cell-based, mouse; settings: 20 μM, 24 hours
Experimental: A mouse macrophage cell line, RAW 264.7 was used for this study. The cells were cultured at 37° C. with 5% CO2 in Roswell Park Memorial Institute (RPMI) 1640 medium containing L-glutamine with 1% sodium pyruvate (Gibco, USA) and 10% fetal bovine serum (Gibco, USA). The cells were passaged every week and the media replenished every two to three days until passage 30, at which point these cells were discarded. The cells were seeded in a 12-well plate at a concentration of 300,000 cells/ml of media and allowed to grow until they reached 80% confluency.
To assess the incorporation of plasmalogen precursors into cellular plasmalogens, cells were supplemented with compounds with different SN1 compositions, i.e., varying proportions of O-16:0, O-18:0, and O-18:1 of LPC(O) or LPE(O) at a concentration of 20 μM (Table 14). The plasmalogen precursors, LPC(O), and LPE(O), were dissolved in chloroform:methanol (2:1), evaporated under a stream of nitrogen gas at 40° C., and then reconstituted in RPMI medium with 2% bovine serum albumin (Sigma-Aldrich, USA). The control treatment for the cells consisted of RPMI with 2% bovine serum albumin. Once prepared, the media containing the precursors were vortexed and sonicated in an ultrasonic water bath (Soniclean, Adelaide, SA, Australia) for 15 minutes.
Lipids were extracted from cells using the butanol-methanol method, following established protocols. […] These vials were then frozen at −80° C. until they were ready for mass spectrometry analysis.
A targeted lipidomic approach using LC-MS/MS, following a previously published protocol (Huynh, et al., “High-Throughput Plasma Lipidomics: Detailed Mapping of the Associations with Cardiometabolic Risk Factors,” Cell Chem. Biol., 2019 Jan. 17; 26(1):71-84.e4, doi: 10.1016/j.chembiol.2018.10.008), was utilised for the samples from this study. […] Multiple lipid species belonging to different lipid classes including phosphatidylcholine (PC), alkylphosphatidylcholine [PC(O)], alkenylphosphatidylcholine [PC(P)], phosphatidylethanolamine (PE), alkylphosphatidylethanolamine [PE(O)], alkenylphosphatidylethanolamine [PE(P)] or PE plasmalogen, lysophosphatidylcholine (LPC), lysoalkylphosphatidylcholine [LPC(O)], lysoalkenylphosphatidylcholine [LPC(P)], lysophosphatidylethanolamine (LPE), lysoalkylphosphatidylethanolamine [LPE(O)], lysoalkenylphosphatidylethanolamine [LPE(P)], triacylglycerol (TG) and alkyldiacylglycerol [TG(O)] were measured. The lipid species measured in this study are listed in Supplementary Table 1, which is included at the end of this Example. […]
For data processing, vendor software Qualitative Analysis B.07.00 and QQQ Quantitative Analysis B.10.0.0 were utilized. Relative quantification of lipid species was determined by comparing them to the corresponding internal standards. […]

3T3-L1 cells = assay: LPC(O)/LPE(O) supplementation with different SN1 compositions in 3T3-L1 cells, PE(P) level and composition; type: cell-based, mouse; settings: 20 μM, 24 hours
Text: The method employed in this study was the same as described in example 5, with the exception of the cell line and culture medium used. For this study, a mouse fibroblast/pre-adipocyte cell line, 3T3-L1, was utilised and cultured in Dulbecco's Modified Eagle Medium (DMEM) (Gibco, USA), supplemented with 1% sodium pyruvate (Gibco, USA) and 10% newborn calf serum (Gibco, New Zealand).

SMILES | efficacy in elevating the endogenous PE(P) level (RAW 264.7 cells) | cellular PE(P) levels (3T3-L1 cells)
CCCCCCCCCCCCCCCCCCOC[C@@H](O)COP(=O)(O)OCCN [LPE(O-18:0) 100%] | equal effectiveness | –
CCCCCCCC/C=C\CCCCCCCCOC[C@@H](O)COP(=O)(O)OCCN [LPE(O-18:1) 100%] | comparatively less effective | appeared to reduce these levels
CCCCCCCCCCCCCCCCOC[C@@H](O)COP(=O)([O-])OCC[N+](C)(C)C [LPC(O-16:0) 100%] | greater efficacy | –
CCCCCCCCCCCCCCCCOC[C@@H](O)COP(=O)(O)OCCN [LPE(O-16:0) 100%] | equal effectiveness | –
